From US7192607B2, “Formulations for the prevention or the treatment of diseases affecting mucosae or skin, or for pregnancy prevention, and an applicator for the delivery of topical formulations into mucosal cavities” (Infectio Recherche Inc, priority 2002, dated 2007)

Tests used:
[1] = system: rabbit, bovine and human papillomaviruses; conditions: brief treatment with low concentrations; Howett et al., 1999; cited from earlier work
HSV-1 (strain F) = assay: Efficacy of SLS or DS added in overlay after infection against HSV-1 (strain F) in Vero cells (PFU); format: cell-based, Herpes simplex virus type-1; conditions: cells infected 2 h, compound in overlay for 2 days, FIG. 2
Experimental: In brief, cells were infected with the virus for 2 h at 37° C. Afterwards, supernatant was removed and cells were overlaid with 0.5 ml of EMEM +2% FBS containing 0.6% agarose Seaplaque and SLS or DS at the desired concentration. Plates were then incubated for 2 days at 37° C. in a 5% CO2 atmosphere. Cells were fixed with 10% formaldehyde in PBS for 20 min, washed with deionized water and stained with 0.05% methylene blue. Viral infectivity was evaluated following the determination of PFU.

## CCCCCCCCCCCCOS(=O)(=O)[O-].[Na+] [SLS, Sodium lauryl sulfate]
[1]
  effect against rabbit, bovine and human papillomaviruses (non-enveloped viruses): effective
HSV-1 (strain F)
  concentration with complete efficacy against viral replication: 100 µM
